The source made the active and inactive calls. No cut-off for these calls is given here.
What was measured:
[1] = molecular target: Melanin-concentrating hormone receptor 1 (Homo sapiens, UniProt Q99705); experiment: Displacement of [125I][Phe13, Tyr19]MCH from human recombinant MCHR1 expressed in CHO cells; type: cell-based
Mus musculus [2] = experiment: Antidepressant effect in mouse at 10 mg/kg, ip assessed as reduction in immobility duration after 30 mins by forced swimming test relative to control; type: functional; design: scale not given: the % may be the effect or the level left; conditions: route intraperitoneal
Mus musculus [3] = experiment: Reduction of cumulative food intake in over-night fasted mouse at 10 mg/kg, ip after 3 hrs relative to control; type: functional, organism-based; design: dose 10 mg/kg
Mus musculus [4] = experiment: Reduction of cumulative food intake in over-night fasted mouse at 30 mg/kg, ip after 3 hrs relative to control; type: functional; design: scale not given: the % may be the effect or the level left; conditions: route intraperitoneal
[5] = molecular target: 5-hydroxytryptamine receptor 2A (Homo sapiens, UniProt P28223); experiment: Binding affinity to 5HT2A receptor
[6] = molecular target: T1, 5-hydroxytryptamine receptor 2C (Homo sapiens, UniProt P28335); experiment: Binding affinity to 5HT2C receptor
T1 sequence (P28335 whole entry): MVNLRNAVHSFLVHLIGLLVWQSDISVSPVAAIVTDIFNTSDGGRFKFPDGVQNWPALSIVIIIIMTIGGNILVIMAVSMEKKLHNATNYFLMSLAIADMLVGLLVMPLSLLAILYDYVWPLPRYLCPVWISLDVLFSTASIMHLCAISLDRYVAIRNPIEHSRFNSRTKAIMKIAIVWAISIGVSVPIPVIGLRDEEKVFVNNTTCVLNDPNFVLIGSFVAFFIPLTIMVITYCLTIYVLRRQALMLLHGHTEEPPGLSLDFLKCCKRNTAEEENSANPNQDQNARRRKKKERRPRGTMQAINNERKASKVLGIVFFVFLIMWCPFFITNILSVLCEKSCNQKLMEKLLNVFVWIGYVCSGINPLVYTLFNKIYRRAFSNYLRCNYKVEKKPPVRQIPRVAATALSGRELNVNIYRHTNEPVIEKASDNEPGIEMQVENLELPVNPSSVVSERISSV

[7] = molecular target: Melanin-concentrating hormone receptor 2 (Homo sapiens, UniProt Q969V1); experiment: Binding affinity to MCHR2
[8] = Binding affinity to L-verapamil site of calcium channel; design: species or system Homo sapiens
[9] = Permeability across human Caco-2 cell membrane; type: ADME, cell-based; conditions: read-out: permeability
Mus musculus [10] = experiment: Antidepressant effect in mouse at 30 mg/kg, ip assessed as reduction in immobility duration after 30 mins by forced swimming test relative to control; type: functional; design: scale not given: the % may be the effect or the level left; conditions: route intraperitoneal
hERG (KCNH2) = hERG (KCNH2) (Homo sapiens, UniProt Q12809); experiment: Inhibition of hERG-mediated current amplitude at 1 uM; type: toxicity
Mus musculus [11] = experiment: Toxicity in mouse at 10 to 100 mg/kg, ip by Irwins method; type: organism-based; design: dose 10-100 mg/kg, route intraperitoneal; conditions: in vivo
[12] = molecular target: Muscarinic acetylcholine receptor M4 (Homo sapiens) (UniProt P08173); experiment: Binding affinity to muscarinic M4 receptor

Melanin-concentrating hormone receptor 1, sequence (Q99705 whole entry): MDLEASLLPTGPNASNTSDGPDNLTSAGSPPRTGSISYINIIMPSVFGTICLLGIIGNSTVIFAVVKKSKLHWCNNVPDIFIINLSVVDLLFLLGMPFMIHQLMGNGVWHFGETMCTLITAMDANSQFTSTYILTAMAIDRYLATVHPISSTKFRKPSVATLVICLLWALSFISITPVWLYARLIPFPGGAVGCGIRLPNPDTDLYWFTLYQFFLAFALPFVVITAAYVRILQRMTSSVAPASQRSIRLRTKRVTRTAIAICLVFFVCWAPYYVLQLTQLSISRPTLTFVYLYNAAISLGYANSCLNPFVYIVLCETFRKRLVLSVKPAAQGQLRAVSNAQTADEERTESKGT
5-hydroxytryptamine receptor 2A, sequence (P28223 whole entry): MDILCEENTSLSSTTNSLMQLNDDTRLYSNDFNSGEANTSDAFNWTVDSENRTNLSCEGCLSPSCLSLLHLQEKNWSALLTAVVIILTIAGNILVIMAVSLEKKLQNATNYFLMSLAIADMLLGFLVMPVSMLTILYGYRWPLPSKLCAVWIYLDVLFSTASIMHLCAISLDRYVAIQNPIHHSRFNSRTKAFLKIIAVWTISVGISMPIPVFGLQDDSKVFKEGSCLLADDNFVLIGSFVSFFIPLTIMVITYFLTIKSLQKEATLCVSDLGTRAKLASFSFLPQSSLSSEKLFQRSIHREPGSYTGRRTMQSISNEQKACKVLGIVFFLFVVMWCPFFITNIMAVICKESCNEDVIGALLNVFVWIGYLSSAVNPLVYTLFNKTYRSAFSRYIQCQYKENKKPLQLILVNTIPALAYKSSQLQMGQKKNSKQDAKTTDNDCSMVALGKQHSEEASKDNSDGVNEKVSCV
Melanin-concentrating hormone receptor 2, sequence (Q969V1 whole entry): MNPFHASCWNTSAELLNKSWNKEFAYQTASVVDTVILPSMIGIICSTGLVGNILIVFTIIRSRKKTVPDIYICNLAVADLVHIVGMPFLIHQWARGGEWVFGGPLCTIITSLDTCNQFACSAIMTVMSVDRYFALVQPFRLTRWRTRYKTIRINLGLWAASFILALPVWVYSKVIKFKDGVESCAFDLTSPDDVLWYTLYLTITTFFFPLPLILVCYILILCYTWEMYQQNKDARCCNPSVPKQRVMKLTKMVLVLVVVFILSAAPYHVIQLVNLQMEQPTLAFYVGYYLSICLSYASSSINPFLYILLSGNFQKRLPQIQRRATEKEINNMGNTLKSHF
hERG (KCNH2), sequence (Q12809 whole entry): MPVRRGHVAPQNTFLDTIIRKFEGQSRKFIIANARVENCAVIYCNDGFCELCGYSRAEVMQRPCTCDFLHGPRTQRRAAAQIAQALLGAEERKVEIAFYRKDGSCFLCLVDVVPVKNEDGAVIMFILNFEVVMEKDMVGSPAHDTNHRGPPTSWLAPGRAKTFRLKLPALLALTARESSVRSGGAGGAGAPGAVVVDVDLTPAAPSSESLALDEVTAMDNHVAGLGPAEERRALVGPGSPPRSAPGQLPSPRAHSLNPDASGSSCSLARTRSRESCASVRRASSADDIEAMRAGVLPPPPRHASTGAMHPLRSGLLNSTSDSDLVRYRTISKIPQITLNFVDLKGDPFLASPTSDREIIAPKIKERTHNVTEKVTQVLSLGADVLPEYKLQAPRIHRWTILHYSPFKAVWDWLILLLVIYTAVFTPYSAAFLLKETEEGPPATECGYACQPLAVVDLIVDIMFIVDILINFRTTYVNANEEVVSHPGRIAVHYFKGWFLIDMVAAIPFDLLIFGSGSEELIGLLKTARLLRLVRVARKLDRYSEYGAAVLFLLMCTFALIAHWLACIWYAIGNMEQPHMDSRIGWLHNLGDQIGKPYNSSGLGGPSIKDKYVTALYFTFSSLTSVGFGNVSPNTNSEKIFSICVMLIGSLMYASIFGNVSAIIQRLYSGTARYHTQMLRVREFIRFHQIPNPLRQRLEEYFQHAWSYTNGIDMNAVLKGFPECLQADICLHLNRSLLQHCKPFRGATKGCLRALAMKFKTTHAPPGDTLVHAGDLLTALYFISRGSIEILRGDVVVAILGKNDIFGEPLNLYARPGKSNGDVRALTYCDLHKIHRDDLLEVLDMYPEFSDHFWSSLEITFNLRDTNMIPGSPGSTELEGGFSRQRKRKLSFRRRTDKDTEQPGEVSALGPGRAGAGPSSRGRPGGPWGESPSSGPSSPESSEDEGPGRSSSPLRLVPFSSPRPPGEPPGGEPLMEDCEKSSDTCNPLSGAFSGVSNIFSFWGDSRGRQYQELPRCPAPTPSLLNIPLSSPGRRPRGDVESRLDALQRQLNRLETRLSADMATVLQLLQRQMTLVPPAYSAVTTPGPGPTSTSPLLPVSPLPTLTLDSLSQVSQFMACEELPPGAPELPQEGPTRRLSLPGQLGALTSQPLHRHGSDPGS

SMILES | Ki [1] | also measured
CC(=O)N1CCN(Cc2ccc(/C=C3\NC(=O)N(c4ccc(Oc5ccccc5)cc4)C3=O)cc2)CC1 | 2060 nM | –
COc1cc(N2CC(=O)N(c3ccc(-c4ccccc4)cc3)C2=O)ccc1OCCN1CCCC1 | 415 nM | –
COc1cc(N2C(=O)CN(c3ccc(-c4ccccc4)cc3)C2=O)ccc1OCCN1CCCC1 | > 5000 nM | –
CN(C)Cc1ccc(/C=C2\NC(=O)N(c3ccc(Oc4ccccc4)cc3)C2=O)cc1 | 341 nM | –
O=C1N/C(=C\c2ccc(CN3CCN(c4ccccc4)CC3)cc2)C(=O)N1c1ccc(Oc2ccccc2)cc1 | > 5000 nM | –
CN(C)CCCN1c2ccccc2CCc2ccccc21 [IMIPRAMINE] | – | Activity (Mus musculus [2]): -58%
COc1cc(NC(=S)Nc2ccc(Oc3ccccc3)cc2)ccc1OCCN1CCCC1 | 1090 nM | –
COc1cc(N2C(=O)CN(c3ccc(Oc4ccccc4)cc3)C2=O)ccc1OCCN1CCCC1 | 365 nM | –
COc1cc(NC(=O)c2ccc(Oc3ccccc3)cc2)ccc1OCCN1CCCC1 | 82 nM | –
O=C1N/C(=C\c2ccc(CN3CCCCC3)cc2)C(=O)N1c1ccc(Oc2ccccc2)cc1 | > 5000 nM | –
CC(C)CC(N(C)C)C1(c2ccc(Cl)cc2)CCC1 (centres undefined) | – | Activity (Mus musculus [3]): Active
O=C1N/C(=C\c2ccc(CN3CCN(Cc4ccccc4)CC3)cc2)C(=O)N1c1ccc(Oc2ccccc2)cc1 | > 5000 nM | –
COc1cc(NC(=O)Nc2ccc(Oc3ccccc3)cc2)ccc1OCCN1CCCC1 | 101 nM | –
CN(C)CCNCc1ccc(/C=C2\NC(=O)N(c3ccc(Oc4ccccc4)cc3)C2=O)cc1 | 707 nM | –
O=C1N/C(=C\c2ccc(CN3CCCCCC3)cc2)C(=O)N1c1ccc(Oc2ccccc2)cc1 | 357 nM | –
COc1cc(Nc2nc(-c3ccc(Oc4ccccc4)cc3)cs2)ccc1OCCN1CCCC1 | 1000 nM | –
O=C1N/C(=C\c2ccc(CNCc3ccccc3)cc2)C(=O)N1c1ccc(Oc2ccccc2)cc1 | > 5000 nM | –
O=C1N/C(=C\c2ccc(CN3CCC(O)C3)cc2)C(=O)N1c1ccc(Oc2ccccc2)cc1 (racemic) | 176 nM | Activity (Mus musculus [4]): 47%
COc1cc(NC(=O)c2ccc(-c3ccccc3)cc2)ccc1OCCN1CCCC1 | 25 nM | –
O=C1N/C(=C\c2ccc(CN3CCOCC3)cc2)C(=O)N1c1ccc(Oc2ccccc2)cc1 | > 5000 nM | –
CN(C)CC1CCc2cc(NC(=O)c3ccc(-c4ccc(F)cc4)cc3)ccc2C1 (centres undefined) | 38 nM | –
O=C1N/C(=C\c2ccc(CNC3CCCC3)cc2)C(=O)N1c1ccc(Oc2ccccc2)cc1 | > 5000 nM | –
COc1cc(NC(=O)Nc2ccc(-c3ccccc3)cc2)ccc1OCCN1CCCC1 | 260 nM | –
O=C1N/C(=C\c2ccc(CN3CCCC3)cc2)C(=O)N1c1ccc(Oc2ccccc2)cc1 | 220 nM | Ki [5]: > 5000 nM; Ki [6]: > 10000 nM; Ki [7]: > 10 µM; Ki [8]: 330 nM; Papp [9]: > 6 ×10⁻⁶ cm/s; Activity (Mus musculus [4]): 41%; Activity (Mus musculus [10]): -57%; inhibition at 1 µM (hERG (KCNH2)): 73%; Activity (Mus musculus [11]): Non-toxic
COc1cc(N2CC(=O)N(c3ccc(Oc4ccccc4)cc3)C2=O)ccc1OCCN1CCCC1 | 164 nM | Ki [5]: 330 nM; Ki [6]: 880 nM; Activity (Mus musculus [4]): 51%; Ki [12]: 370 nM

From ChEMBL document CHEMBL1139948, “Design and synthesis of novel hydantoin-containing melanin-concentrating hormone receptor antagonists” (Bioorg Med Chem Lett, 2007)
